Key:
splenocytes of CIA mice = assay: Cytokine ELISA on splenocytes of CIA mice; assay type: in vivo; conditions: mean ± SD, 5 mice
Protocol: The production of IL-2, IL-4, IL-6, and IFN-γ from mitogen-stimulated splenocytes was determined as previously described (Chouaib, S.; Welte, K.; Mertelsman, R.; Dupont, B.; J. Immunol., 1985, 135, 1172-1179). Spleens were gently teased with forceps in the culture medium producing a suspension of spleen cells (CM, RPMI 1640 containing 10% fetal bovine serum, 2 mM L-glutamine, 1×10^5 units/L of penicillin and streptomycin). The red blood cells were lysed with 3 mL of lysing buffer (0.16 mol/L ammonia chloride Tris buffer, pH 7.2) at 37° C. for 5 minutes. The cells were then washed with CM twice. The cell concentrations were counted and adjusted to 2×10^6 cells/mL. Splenocytes ([…]) were cultured in triplicate on 96-well flat-bottom culture plates. Splenocytes (0.1 mL/well) were stimulated with ConA (1×10^−2 g/L, 0.1 mL/well) to induce IL-2, IL-4 and IFN-γ production. In other plates, splenocytes were cultured with lipopolysaccharide (1×10^−6 g/L) to induce IL-6 production. These plates were incubated at 37° C., 5% CO2; the culture time for IL-2, IL-4 and IL-6 is 24 hours (or 72 hours for IFN-γ). After incubation, supernatants were collected and stored at −70° C. The cytokines were determined by sandwich ELISA as previously described using a commercial kit.
To establish whether the protective effect of the feijoa fruit extract was related to the anti-inflammatory response observed in the CIA mice, pro-inflammatory cytokines (TNF-α, IL-2 and INF-γ) were investigated using the ELISA assay described in Example 3 (Table 9). It is well known that such cytokines play crucial roles in joint destruction by damaging the synovial cells within the joint. Consequently, a reduction in synovial cells within the joint results in an increase in friction, which in turn, results in inflammation and the potential development of arthritis.

[1] = tested on: collagen-induced arthritis (CIA) mice; assay: Collagen-induced arthritis mice: clinical score, treadmill, histology, radiology; assay type: in vivo
[2] = day 56-79, diet with extract (1.8 mg/day) or 10 mg/kg methotrexate, mean ± SD, 5 mice

CN(Cc1cnc2nc(N)nc(N)c2n1)c1ccc(C(=O)N[C@@H](CCC(=O)O)C(=O)O)cc1 [Methotrexate, methotrexate]
IFN-γ level by splenocytes (splenocytes of CIA mice): 182 ± 21 pg/mL | IL-2 level by splenocytes (splenocytes of CIA mice): 104 ± 10 pg/mL | TNF-α level by splenocytes (splenocytes of CIA mice): 255 ± 15 pg/mL | Clinical Score (paw swelling) ([1]; day 56-79, diet with extract (1.8 mg/day) or 10 mg/kg methotrexate, 5 mice): 10.5 ± 0.7 | Foot pressure (treadmill) [1, 2]: 141.23 ± 5.28 | Running Speed (treadmill) [1, 2]: 121.36 ± 1.69 mm/s | Histological evaluation of joint sections (H&E) ([1]; end of trial, FIGS. 2, 3): relatively normal joint structures with little soft tissue swelling

From patent US11065292B2, “Feijoa fruit extract” (CALLAGHAN INNOVATION, priority 2012, dated 2021)
